Experiments:
Assay type in all cases: in vivo
[1] = tested on: Mythimna separata; test: Test of Efficacy on Mythimna separata (test feed); settings: 1 μl of emulsion (I) (5% active ingredient) in 0.8 g artificial feed; second instar larvae; 25° C.; fifth day
Experimental: 5 parts of the heteroaryl azole compound of the present invention, 93.6 parts of dimethylformamide, and 1.4 parts of polyoxyethylene alkyl aryl ether were mixed and dissolved to prepare emulsion (I) containing 5% of the active ingredient. For a control, 98.5 parts of dimethylformamide and 1.5 parts of polyoxyethylene alkyl aryl ether were mixed and dissolved to prepare emulsion (II). An insecticidal rate was calculated according to the following expression: Insecticidal rate (%)=(The number of dead insects/The number of tested insects)×100 0.8 g of commercially available artificial feed (Insecta LFS, manufactured by Nosan Corp.) and 1 μl of the emulsion (I) were well mixed to obtain test feed. A plastic test container (capacity: 1.4 ml) was packed with 0.2 g of the test feed per treatment plot. Then, two second instar larvae of Mythimna separata were inoculated to each treatment plot. A plastic lid was put on the test container so as to prevent escape of the second instar larvae of Mythimna separata. The container was placed in a thermostat chamber of 25° C. On the fifth day, the insecticidal rate and the food intake were examined. The test was conducted in duplicate. The insecticidal rate and the food intake of a control plot were examined in the same way as in Test Example 1 except that the emulsion (I) was changed to the emulsion (II).

[2] = tested on: Aphis craccivora; test: Test of Efficacy on Aphis craccivora (spray on black-eyed peas); settings: 96 h, 125 ppm, sprayed to black-eyed peas, nymphs, after 4 days, read-out: insecticidal rate
Experimental: (§1) 5 parts of the heteroaryl azole compound of the present invention, 93.6 parts of dimethylformamide, and 1.4 parts of polyoxyethylene alkyl aryl ether were mixed and dissolved to prepare emulsion (I) containing 5% of the active ingredient.
(§2) An insecticidal rate was calculated according to the following expression: Insecticidal rate (%)=(The number of dead insects/The number of tested insects)×100
Seedlings of black-eyed peas were raised in 10-cm pots. Aphis craccivora nymphs were inoculated onto primary leaves. The emulsion (I) was diluted with water such that the concentration of the compound of the present invention was 125 ppm. The dilution was sprayed to the black-eyed peas parasitized by the Aphis craccivora nymphs. The black-eyed peas were placed in a thermostat chamber having a temperature of 25° C. and a humidity of 60%. Life and death of Aphis craccivora were determined after 4 days from the spraying, and the insecticidal rate was calculated. The test was conducted in duplicate.

[3] = tested on: Phyllotreta striolata; test: Test of Efficacy on Phyllotreta striolata (spray on Qing geng cai seedlings); settings: 168 h, sprayed to Qing geng cai seedlings, adults, after 7 days, read-out: insecticidal rate
Experimental: as §1, §2
The emulsion (I) was diluted with water such that the concentration of the compound of the present invention was 125 ppm to prepare a test chemical. The test chemical was sprayed to Qing geng cai seedlings (at the seventh true leaf stage) planted in 10-cm pots. The Qing geng cai seedlings were dried in air and then placed in a plastic cup. Ten Phyllotreta striolata adults were released thereto. The plastic cup was stored in a thermostat chamber having a temperature of 25° C. and a humidity of 65%. Life and death were determined after 7 days from the release of the insects, and the insecticidal rate was calculated. The test was conducted in duplicate.

[4] = tested on: Plutella xylostella; test: Test of Efficacy on Plutella xylostella (cabbage leaf dip); settings: foliar, 72 h, cabbage leaves dipped 30 seconds, second instar larvae, after 3 days, read-out: insecticidal rate
Experimental: 5 parts of the heteroaryl azole compound of the present invention, 93.6 parts of dimethylformamide, and 1.4 parts of polyoxyethylene alkyl aryl ether were mixed and dissolved to prepare emulsion (I) containing 5% of the active ingredient. An insecticidal rate was calculated according to the following expression: Insecticidal rate (%)=(The number of dead insects/The number of tested insects)×100 The emulsion (I) was diluted with water such that the concentration of the compound of the present invention was 125 ppm. Cabbage leaves were dipped in the dilution for 30 seconds. The resulting cabbage leaves were placed in a petri dish. Five second instar larvae of Plutella xylostella were released thereto. The petri dish was placed in a thermostat chamber having a temperature of 25° C. and a humidity of 60%. Life and death were determined after 3 days from the release of the insects, and the insecticidal rate was calculated. The test was conducted in duplicate.

SMILES	insecticidal rate or food intake as compared with the control plot [1]	pest or weed control at 125 ppm [2]	pest or weed control at 125 ppm [3]	pest or weed control at 125 ppm [4]
CCS(=O)(=O)c1cc(-c2ncccn2)cnc1-c1ncn(CC(F)(F)C(F)(F)C(F)(F)F)c1C [c-5]	insecticidal rate of 100% for Mythimna separata or a food intake of 10% or less as compared with the control plot	≥ 80%	≥ 80%	≥ 80%
CCS(=O)(=O)c1cc(-c2ncccn2)cnc1-c1ncn(/C=C(\F)C(F)(F)C(F)(F)F)c1C [c-8]	–	–	≥ 80%	≥ 80%
CCS(=O)(=O)c1cc(-c2ncccn2)cnc1-c1ncn(/C=C(\F)C(F)(F)I)c1C [c-9]	–	–	≥ 80%	≥ 80%
CCS(=O)(=O)c1cc(-c2ncccn2)cnc1-c1ncn(-c2ccc(OC(F)(F)F)cc2)n1 [d-1]	–	–	≥ 80%	≥ 80%
CCS(=O)(=O)c1cc(-c2ccccn2)cnc1-c1ncn(-c2ccc(OC(F)(F)F)cc2)n1 [d-6]	insecticidal rate of 100% for Mythimna separata or a food intake of 10% or less as compared with the control plot	≥ 80%	≥ 80%	≥ 80%
CCS(=O)(=O)c1cc(C2CC2)cnc1-c1ncn(-c2ccc(OC(F)(F)F)cc2)n1 [d-7]	–	–	≥ 80%	≥ 80%
CCS(=O)(=O)c1cc(C2CC2)cnc1-c1cn(-c2ccc(OC(F)(F)F)cc2)cn1 [d-19, 5-cyclopropyl-3-(ethylsulfonyl)-2-(1-(4-(trifluoromethoxy)phenyl)-1H-imidazol-4-yl)pyridine]	insecticidal rate of 100% for Mythimna separata or a food intake of 10% or less as compared with the control plot	≥ 80%	≥ 80%	≥ 80%
CCS(=O)(=O)c1cc(-c2ccccn2)cnc1-c1cn(-c2ccc(OC(F)(F)F)cc2)cn1 [d-20]	insecticidal rate of 100% for Mythimna separata or a food intake of 10% or less as compared with the control plot	≥ 80%	≥ 80%	≥ 80%
CCS(=O)(=O)c1cc(C2CC2)c[n+]([O-])c1-c1cn(-c2ccc(OC(F)(F)F)cc2)cn1 [d-22]	–	≥ 80%	≥ 80%	≥ 80%
CCS(=O)(=O)c1cc(-c2ccccn2)cnc1-c1ncn(-c2ccc(OC(F)(F)F)cc2)c1C [d-25]	insecticidal rate of 100% for Mythimna separata or a food intake of 10% or less as compared with the control plot	≥ 80%	–	≥ 80%
CCS(=O)(=O)c1ccc(-n2cncn2)nc1-c1ncn(-c2ccc(OC(F)(F)F)cc2)c1Br [d-26]	insecticidal rate of 100% for Mythimna separata or a food intake of 10% or less as compared with the control plot	≥ 80%	–	≥ 80%
CCS(=O)(=O)c1ccc(-n2cncn2)nc1-c1ncn(-c2ccc(OC(F)(F)F)cc2)c1C [d-27]	insecticidal rate of 100% for Mythimna separata or a food intake of 10% or less as compared with the control plot	≥ 80%	–	≥ 80%
